pKi: −log10 of the molar value. Where two headings read alike, the source gives them in different places.
Key:
human D2 receptor = human D2 receptor (Homo sapiens (Human), UniProt P14416); test: Radioligand binding assay, [3H]-spiperone, human D2 receptor; details: membranes of HEK293 EBNA cells expressing human D2; 0.7 nM [3H]-spiperone
Procedure: (§1) HEK293 EBNA cells were transiently transfected with expression plasmids encoding for the human D2 or D3 or for the human 5-HT2A receptor, respectively. The cells were harvested 48 h post-transfection, washed three times with cold PBS and stored at −80° C. prior to use. The pellet was suspended in cold 50 mM Tris-HCl buffer comprising 10 mM EDTA (pH 7.4) and was homogenized with a Polytron (Kinematica AG, Basel, Switzerland) for 20-30 sec at 12.000 rpm. After centrifugation at 48.000×g for 30 min at 4° C., the pellet was resuspended in cold 10 mM Tris-HCl buffer comprising 0.1 mM EDTA (pH 7.4), homogenized, and centrifuged as above. This pellet was further resuspended in a smaller volume of ice cold 10 mM Tris-HCl buffer comprising 0.1 mM EDTA (pH 7.4) and homogenized with a Polytron for 20-30 sec at 12.000 rpm. The protein content of this homogenate was determined with the Bio-Rad (Bradford) Protein Assay (Biorad Laboratories GmbH, München, Germany) according to the instructions of the manufacturer using gamma globulin as the standard. This homogenate was stored at −80° C. in aliquots and thawed immediately prior to use.
(§2) Aliquots of membrane preparations were thawed at RT, resuspended in assay buffer (D2, D3: 50 mM Tris-HCl, 120 mM NaCl, 5 mM MgCl2, 1 mM EDTA, 5 mM KCl, 1.5 mM CaCl2, pH=7.4; 5-HT2A: 50 mM Tris-HCl, 10 mM MgCl2, 1 mM EGTA, pH=7.4), homogenized with a Polytron for 20-30 sec at 12.000 rpm and adjusted to a final concentration of approximately 7.5 μg protein/well (D2, D3) and 15 μg protein/well (5-HT2A), respectively.
(§3) The binding affinity (Ki) of the compounds was determined using radioligand binding. Membranes were incubated in a total volume of 200 μl with a fixed concentration of radioligand (final concentration approximately 0.7 nM [^3H]-spiperone for D2, 0.5 nM [^3H]-spiperone for D3, and 1.1 nM [^3H]-ketanserin for 5-HT2A) and ten concentrations of test compound in ranging between 10 μM-0.1 nM for 1 h at RT. […] The nonspecific binding was determined with equally composed reaction mixtures in the presence of 10 μM unlabelled spiperone. Per well 45 μl of Microscint 40 (Perkin Elmer, Schwerzenbach, Switzerland) was added, plates for sealed, shaken for 20 min and counted for 3 min on a Topcount Microplate Scintillation Counter (Can berra Packard SA, Zürich, Switzerland) with quenching correction.
(§4) The CPM value for each duplicate of a concentration of competing compound was averaged (y1), then the % specific binding was calculated according to the equation (((y1−non-specific)/(total binding−non-specific))×100). Graphs were plotted with the % specific binding using XLfit, a curve fitting program that iteratively plots the data using Levenberg-Marquardt algorithm. […] The affinity constant (K) was calculated using the Cheng-Prusoff equation Ki=(IC50/1+([L]/Kd), where [L] is the concentration of radioligand and Kd is the dissociation constant of the radioligand at the receptor as determined by the saturation isotherm.

human 5-HT2A receptor = human 5-HT2A receptor (Homo sapiens (Human), UniProt P28223); test: Radioligand binding assay, [3H]-ketanserin, human 5-HT2A receptor
human 5-HT2A receptor, sequence (P28223 whole entry): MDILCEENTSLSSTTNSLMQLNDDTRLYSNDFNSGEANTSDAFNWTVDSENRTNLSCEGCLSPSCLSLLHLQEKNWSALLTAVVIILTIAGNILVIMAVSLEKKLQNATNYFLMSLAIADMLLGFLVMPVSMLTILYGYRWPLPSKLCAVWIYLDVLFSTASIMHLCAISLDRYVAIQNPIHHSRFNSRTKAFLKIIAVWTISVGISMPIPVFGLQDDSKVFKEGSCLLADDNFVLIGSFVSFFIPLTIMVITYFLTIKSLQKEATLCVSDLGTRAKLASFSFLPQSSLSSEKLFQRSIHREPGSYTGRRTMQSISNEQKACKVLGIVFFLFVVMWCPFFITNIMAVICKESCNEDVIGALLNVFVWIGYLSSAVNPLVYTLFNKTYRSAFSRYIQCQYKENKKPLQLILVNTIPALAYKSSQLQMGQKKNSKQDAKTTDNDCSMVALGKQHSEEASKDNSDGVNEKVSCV
Procedure: as §1, §2, §3
as §4, with “algorithm. The single site competition analysis equation used was y=A+((B−A)/(1+((x/C)D))), where y is the % specific binding, A is the minimum y, B is the maximum y, C is the IC50, x is the log 10 of the concentration of the competing compound and D is the slope of the curve (the Hill Coefficient).” for “algorithm.”

human D3 receptor = human D3 receptor (Homo sapiens (Human), UniProt P35462); test: Radioligand binding assay, [3H]-spiperone, human D3 receptor; details: membranes of HEK293 EBNA cells expressing human D3; 0.5 nM [3H]-spiperone
human D3 receptor, sequence (P35462 whole entry): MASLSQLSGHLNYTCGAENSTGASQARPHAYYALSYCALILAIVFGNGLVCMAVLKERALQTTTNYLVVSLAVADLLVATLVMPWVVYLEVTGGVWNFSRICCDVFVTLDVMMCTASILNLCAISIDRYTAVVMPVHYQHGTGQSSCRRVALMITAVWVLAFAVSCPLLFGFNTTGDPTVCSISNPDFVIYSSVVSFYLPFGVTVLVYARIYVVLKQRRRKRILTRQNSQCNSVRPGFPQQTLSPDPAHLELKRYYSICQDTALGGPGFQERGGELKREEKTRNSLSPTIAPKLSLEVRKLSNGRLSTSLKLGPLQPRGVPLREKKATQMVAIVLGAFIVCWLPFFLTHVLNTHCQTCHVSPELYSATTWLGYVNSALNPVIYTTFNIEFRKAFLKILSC
Procedure: as §1, §2, §3
as §4, with “algorithm. The single site competition analysis equation used was y=A+((B−A)/(1+((x/C)D))), where y is the % specific binding, A is the minimum y, B is the maximum y, C is the IC50, x is the log 10 of the concentration of the competing compound and D is the slope of the curve (the Hill Coefficient).” for “algorithm.”

[1] = membranes of HEK293 EBNA cells expressing human 5-HT2A, 1.1 nM [3H]-ketanserin

human D2 receptor, sequence (P14416 whole entry): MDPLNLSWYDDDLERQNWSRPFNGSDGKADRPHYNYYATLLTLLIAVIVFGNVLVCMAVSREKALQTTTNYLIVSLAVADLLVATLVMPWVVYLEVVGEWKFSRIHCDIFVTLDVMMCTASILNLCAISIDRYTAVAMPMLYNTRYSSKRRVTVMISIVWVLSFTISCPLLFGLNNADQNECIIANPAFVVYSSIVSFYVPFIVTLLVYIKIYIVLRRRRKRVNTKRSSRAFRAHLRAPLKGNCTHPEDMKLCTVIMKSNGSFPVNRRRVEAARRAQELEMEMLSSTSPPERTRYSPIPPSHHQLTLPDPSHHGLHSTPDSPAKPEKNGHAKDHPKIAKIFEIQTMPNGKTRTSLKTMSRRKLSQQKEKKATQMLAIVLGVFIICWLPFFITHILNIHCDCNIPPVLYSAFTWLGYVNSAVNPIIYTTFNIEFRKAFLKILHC

Row | Structure (SMILES) | melting point [°C] | pKi (human D2 receptor) | pKi (human 5-HT2A receptor; [1]) | pKi (human D3 receptor) | pKi (human 5-HT2A receptor)
1 | O=C(CC1COCCO1)N[C@H]1CC[C@H](CCN2CCN(c3nccc4c3CCO4)CC2)CC1 (mixture of isomers) [Example 37, trans-N-(4-{2-[4-(2,3-Dihydrofuro[3,2-c]pyridin-4-yl)-piperazin-1-yl]-ethyl}-cyclohexyl)-2-(rac-1,4-dioxan-2-yl)-acetamide] | 186 | 5.83 | 8.01 | – | –
2 | O=C(N[C@H]1CC[C@H](CCN2CCN(c3nccc4c3CCO4)CC2)CC1)C1CCOC1 (mixture of isomers) [Example 42, trans-N-(4-{2-[4-(2,3-Dihydrofuro[3,2-c]pyridin-4-yl)-piperazin-1-yl]-ethyl}-cyclohexyl)-rac-tetrahydrofuran-3-carboxamide] | 208.5 | 6.22 | 8.00 | 7.74 | –
3 | O=C(N[C@H]1CC[C@H](CCN2CCN(c3nccc4c3CCO4)CC2)CC1)C1CCCOC1 (mixture of isomers) [Example 53, rac-Tetrahydro-pyran-3-carboxylic acid trans-(4-{2-[4-(2,3-dihydro-furo[3,2-c]pyridin-4-yl)-piperazin-1-yl]-ethyl}-cyclohexyl)-amide] | 216 | – | – | 7.54 | –
4 | O=C(CC1CCCO1)N[C@H]1CC[C@H](CCN2CCN(c3nccc4c3CCO4)CC2)CC1 (mixture of isomers) [Example 64, trans-N-(4-{2-[4-(2,3-Dihydro-furo[3,2-c]pyridin-4-yl)-piperazin-1-yl]-ethyl}-cyclohexyl)-2-rac-(tetrahydro-furan-2-yl)-acetamide] | 181.5 | 5.90 | 7.78 | 7.62 | –
5 | CCC(C)C(=O)N[C@H]1CC[C@H](CCN2CCN(c3nccc4c3CCO4)CC2)CC1 (mixture of isomers) [Example 76, trans-N-(4-{2-[4-(2,3-Dihydro-furo[3,2-c]pyridin-4-yl)-piperazin-1-yl]-ethyl}-cyclohexyl)-rac-2-methyl-butyramide] | 205.5 | 6.15 | 7.88 | 7.60 | –
6 | O=C(N[C@H]1CC[C@H](CCN2CCN(c3nccc4c3CCO4)CC2)CC1)C(O)C(F)(F)F (mixture of isomers) [Example 112, trans-(RS)—N-(4-{2-[4-(2,3-Dihydro-furo[3,2-c]pyridin-4-yl)-piperazin-1-yl]-ethyl}-cyclohexyl)-3,3,3-trifluoro-2-hydroxy-propionamide] | 204 | – | – | 7.42 | –
7 | O=C(CC1C[C@H](O)CO1)N[C@H]1CC[C@H](CCN2CCN(c3nccc4c3CCO4)CC2)CC1 (stereo in doubt) [Example 91, trans-N-(4-{2-[4-(2,3-Dihydro-furo[3,2-c]pyridin-4-yl)-piperazin-1-yl]-ethyl}-cyclohexyl)-2-((S)-4-hydroxy-tetrahydro-furan-2-yl)-acetamide] | 155 | 6.03 | 7.65 | 7.85 | –
8 | CC(=O)N[C@H]1CC[C@H](CCN2CCN(c3nccc4c3CCO4)CC2)CC1 [Example 32, trans-N-(4-{2-[4-(2,3-Dihydro-furo[3,2-c]pyridin-4-yl)-piperazin-1-yl]-ethyl}-cyclohexyl)-acetamide] | 260 | 6.11 | 7.64 | 7.90 | –
9 | O=C(N[C@H]1CC[C@H](CCN2CCN(c3nccc4c3CCO4)CC2)CC1)C1CCOCC1 [Example 33, trans-N-(4-{2-[4-(2,3-Dihydrofuro[3,2-c]pyridin-4-yl)-piperazin-1-yl]-ethyl}-cyclohexyl)-tetrahydro-2H-pyran-4-carboxamide] | 263 | 6.30 | 8.23 | 7.42 | –
10 | O=C(CC1CCOCC1)N[C@H]1CC[C@H](CCN2CCN(c3nccc4c3CCO4)CC2)CC1 [Example 34, trans-N-(4-{2-[4-(2,3-Dihydrofuro[3,2-c]pyridin-4-yl)-piperazin-1-yl]-ethyl}-cyclohexyl)-2-(tetrahydro-2H-pyran-4-yl)-acetamide] | 233 | 6.06 | 7.70 | 7.60 | –
11 | COCCC(=O)N[C@H]1CC[C@H](CCN2CCN(c3nccc4c3CCO4)CC2)CC1 [Example 35, trans-N-(4-{2-[4-(2,3-Dihydrofuro[3,2-c]pyridin-4-yl)-piperazin-1-yl]-ethyl}-cyclohexyl)-3-methoxypropanamide] | 246.5 | 5.83 | 7.62 | 7.76 | –
12 | CCC(=O)N[C@H]1CC[C@H](CCN2CCN(c3nccc4c3CCO4)CC2)CC1 [Example 36, trans-N-(4-{2-[4-(2,3-Dihydrofuro[3,2-c]pyridin-4-yl)-piperazin-1-yl]-ethyl}-cyclohexyl)-propionamide] | 192.5 | 6.09 | 7.88 | 8.01 | –
13 | COCC(=O)N[C@H]1CC[C@H](CCN2CCN(c3nccc4c3CCO4)CC2)CC1 [Example 38, trans-N-(4-{2-[4-(2,3-Dihydrofuro[3,2-c]pyridin-4-yl)-piperazin-1-yl]-ethyl}-cyclohexyl)-2-methoxyacetamide] | 169.5 | 5.81 | – | 7.34 | 7.96
14 | CS(=O)(=O)CC(=O)N[C@H]1CC[C@H](CCN2CCN(c3nccc4c3CCO4)CC2)CC1 [Example 39, trans-N-(4-{2-[4-(2,3-Dihydrofuro[3,2-c]pyridin-4-yl)-piperazin-1-yl]-ethyl}-cyclohexyl)-methylsulfonyl-acetamide] | 260.5 | 5.99 | – | 8.01 | 7.79
15 | O=C(C[C@@H]1COCCO1)N[C@H]1CC[C@H](CCN2CCN(c3nccc4c3CCO4)CC2)CC1 [Example 61, trans-N-(4-{2-[4-(2,3-Dihydro-furo[3,2-c]pyridin-4-yl)-piperazin-1-yl]-ethyl}-cyclohexyl)-2-(R)-[1,4]dioxan-2-yl-acetamide] | 193.5 | 5.95 | 7.93 | – | –
16 | O=C(N[C@H]1CC[C@H](CCN2CCN(c3nccc4c3CCO4)CC2)CC1)c1ccnc2ccccc12 [Example 62, Quinoline-4-carboxylic acid trans-(4-{2-[4-(2,3-dihydro-furo[3,2-c]pyridin-4-yl)-piperazin-1-yl]-ethyl}-cyclohexyl)-amide] | 210 | – | 8.44 | 7.97 | –
17 | O=C(C[C@H]1COCCO1)N[C@H]1CC[C@H](CCN2CCN(c3nccc4c3CCO4)CC2)CC1 [Example 67, trans-N-(4-{2-[4-(2,3-Dihydro-furo[3,2-c]pyridin-4-yl)-piperazin-1-yl]-ethyl}-cyclohexyl)-2-(S)-[1,4]dioxan-2-yl-acetamide] | 192 | 5.84 | 8.09 | – | –
18 | O=C(N[C@H]1CC[C@H](CCN2CCN(c3nccc4c3CCO4)CC2)CC1)c1ccc(Cl)cc1Cl [Example 132, trans-2,4-Dichloro-N-(4-{2-[4-(2,3-dihydro-furo[3,2-c]pyridin-4-yl)-piperazin-1-yl]-ethyl}-cyclohexyl)-benzamide] | 203.5 | – | 7.66 | 7.57 | –

From patent US8586579B2, “Anellated pyridine compounds” (Hoffmann-La Roche Inc., priority 2010, dated 2013)
